Data on 28 compounds can be found in patent US6335339B1, “Triazine antiviral compounds” (Scriptgen Pharmaceuticals, Inc., priority 1998, dated 2002).

This assay has as its system HBV εRNA. The assay can be described thus: εRNA/oligonucleotide hybridization inhibition assay with rRNA competitor. The assay is classed as binding, Hepatitis B virus. The following applies: for IC50: radiolabeled εRNA, 60-fold excess rRNA competitor; for Specificity: ratio RRE+rRNA IC50/εRNA+rRNA IC50, max = inactive in RRE assay. An outline of the steps:
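Inhibition of hybridization between 25 nM [32P]-εRNA and 100 nM biotinylated complementary oligonucleotide (50 mM Tris-HCl pH 7.5, 200 mM KCl, 5 mM MgCl2, 60 min, 25 °C), hybrids captured by streptavidin filter and counted. Titrations 0.1-200 μM with 60-fold excess rRNA; specificity = RRE+rRNA IC50/εRNA+rRNA IC50.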

As usually defined, the IC50 is the point on the concentration scale where inhibition reaches its midpoint. Regarding `COc1ccccc1C=NNc1nc(Nc2ccc([N+](=O)[O-])cc2)nc(Nc2ccc(C)c(C)c2)n1` [Compound 94], the half-inhibitory concentration (IC50) amounted to 12 µM and the Specificity is given as 20.8.

`CNc1nc(NN=Cc2ccccc2[N+](=O)[O-])nc(Nc2ccccc2)n1` [Compound 65]: the IC50 came out at 99.9 µM and the Specificity entry was “max”.

On to `Cc1[nH]c2ccccc2c1C=NNc1nc(Nc2ccccc2)nc(N2CCOCC2)n1` [Compound 4], for which the IC50 came to 16.3 µM and the Specificity result is “max”.

For the compound `CC(C)c1ccc(C=NNc2nc(Nc3ccc([N+](=O)[O-])cc3)nc(N3CCCCCC3)n2)cc1` [Compound 56], the IC50 turned out to be 42.1 µM and the Specificity entry is listed as “max”.

In the case of `CCCCN(CCCC)c1nc(NN=Cc2c[nH]c3ccccc23)nc(Nc2ccc([N+](=O)[O-])cc2)n1` [Compound 39], the half-maximal inhibitory concentration (IC50) is 39.9 µM and the Specificity result is “max”.

Take `C(=NNc1nc(Nc2ccccc2)nc(N2CCCCC2)n1)c1ccccc1` [Compound 3]: the half-inhibitory concentration (IC50) amounted to 66.9 µM and the Specificity entry is given as “max”.

With `Brc1cc2c(cc1C=NNc1nc(NCc3ccccc3)nc(Nc3ccccc3)n1)OCO2` [Compound 43], the IC50 is 30.1 µM and the Specificity result is “max”.

Regarding `Cc1[nH]c2ccccc2c1C=NNc1nc(Nc2ccccc2)nc(N2CCCCC2)n1` [Compound 88], the IC50 stood at 11.7 µM and the Specificity was determined as 80.2.

In the case of `CCN(CC)c1nc(N/N=C/c2ccc([N+](=O)[O-])cc2)nc(Nc2cc(C)ccc2C)n1` [Compound 63], the half-inhibitory concentration (IC50) is 69 µM and the Specificity entry is on record as “max”.

Turning to `O=[N+]([O-])c1cc(C=NNc2nc(Nc3ccccc3)nc(N3CCOCC3)n2)ccc1Cl` [Compound 52], the half-inhibitory concentration (IC50) was 66 µM and the Specificity entry is on record as “max”.

Regarding `O=[N+]([O-])c1ccc(Nc2nc(N/N=C/c3cccc(Cl)c3)nc(N3CCCCC3)n2)cc1` [Compound 41], the half-inhibitory concentration (IC50) was 24.9 µM and the Specificity entry was “max”.

Regarding `C(=Cc1ccccc1)C=NNc1nc(NCc2ccccc2)nc(Nc2ccccc2)n1` [Compound 91], the IC50 was determined as 17.1 µM and the Specificity is listed as 46.8.

With `CC(C)c1ccc(C=NNc2nc(Nc3ccc([N+](=O)[O-])cc3)nc(N3CCCCC3)n2)cc1` [Compound 62], the IC50 worked out at 54.3 µM and the Specificity result is “max”.

On to `FC(F)(F)c1cccc(Nc2nc(Nc3cccc(Br)c3)nc(N3CCOCC3)n2)c1` [Compound 38], for which the IC50 worked out at 34.9 µM and the Specificity entry is “max”.

For `CCCCN(CCCC)c1nc(NN=C(C)c2ccccc2)nc(Nc2ccc([N+](=O)[O-])cc2)n1` [Compound 74], the IC50 was determined as 126 µM and the Specificity result is on record as “max”.

As for `Cc1ccc(Nc2nc(NN=Cc3ccc(Cl)cc3)nc(Nc3ccccc3)n2)c(C)c1` [Compound 42], the IC50 was determined as 30 µM and the Specificity result is reported as “max”.

As to `Cc1ccc(Nc2nc(NN=Cc3cccc(Br)c3)nc(Nc3ccccc3)n2)c(C)c1` [Compound 49], the IC50 is 35 µM and the Specificity result was “max”.

Regarding `CC(C)(C)Nc1nc(NCc2ccccc2)nc(NN=Cc2ccc3c(c2)OCO3)n1` [Compound 67], the 50% inhibitory concentration (IC50) is 47.7 µM and the Specificity entry was “max”.

Consider `CCN(CC)c1nc(NN=Cc2cc([N+](=O)[O-])ccc2OC)nc(Nc2cc(C)ccc2C)n1` [Compound 85], for which the IC50 was 53.8 µM and the Specificity result was “max”.

As for `CCN(CC)c1nc(NN=Cc2ccc(F)cc2)nc(Nc2ccc([N+](=O)[O-])cc2)n1` [Compound 68], the IC50 came to 33 µM and the Specificity result is recorded as “max”.

In the case of `O=[N+]([O-])c1ccc(C=NNc2nc(Nc3ccccc3)nc(NC3CCCCC3)n2)cc1` [Compound 46], the IC50 was 23.1 µM and the Specificity entry was “max”.

For `Cc1[nH]c2ccccc2c1C=NNc1nc(NCc2ccccc2)nc(Nc2ccccc2)n1` [Compound 50], the IC50 was found to be 39.9 µM and the Specificity entry is on record as “max”.

With `COc1ccc(C=NNc2nc(Nc3ccc([N+](=O)[O-])cc3)nc(N3CCCCC3)n2)cc1` [Compound 44], the IC50 worked out at 35 µM and the Specificity result is given as “max”.

For `Oc1ccc(Nc2nc(Nc3cccc(C(F)(F)F)c3)nc(N3CCOCC3)n2)cc1` [Compound 53], the IC50 stood at 70.1 µM and the Specificity result is “max”.

Turning to `CC(C)(C)Nc1nc(NCc2ccccc2)nc(N/N=C/c2ccccc2F)n1` [Compound 93, 2-fluorobenzaldehyde N-[4-(benzylamino)-6-(tert-butylamino)-1,3,5-triazin-2-yl]hydrazone], the half-maximal inhibitory concentration (IC50) is 12.7 µM and the Specificity entry is listed as “max”.

`Cc1ccc(Nc2nc(NN=Cc3ccc4c(c3)OCO4)nc(Nc3ccccc3)n2)c(C)c1` [Compound 51]: the IC50 worked out at 39.9 µM and the Specificity result is “max”.

Turning to `Cc1ccc(Nc2nc(NN=Cc3ccc(Cl)c(Cl)c3)nc(Nc3ccccc3)n2)c(C)c1` [Compound 40], the IC50 was 21.9 µM and the Specificity entry is recorded as “max”.

As to `COc1ccc(C=NNc2nc(Nc3ccccc3)nc(Nc3ccc(C)cc3C)n2)c(OC)c1` [Compound 61], the 50% inhibitory concentration (IC50) worked out at 42.6 µM and the Specificity entry is on record as “max”.
